This is an account of results in patent US20100168421A1, “A NEW PEPTIDE DEFORMYLASE INHIBITOR COMPOUND AND MANUFACTURING PROCESS THEREOF” (priority 2007, published 2010).

In brackets after ≈: the same amount, converted by molar mass. Like-named read-outs stand apart in the source and are kept apart here. A value given as a limit tells only on which side of the number the result lay.

The target of data set [1] is PDF enzyme (Escherichia coli, UniProt P0A6K3). Put plainly: PDF/FDH coupled enzyme assay, E. coli. In kind it is biochemical. Particulars: PDF/FDH coupled assay, substrate fMAS, absorption at 340 nm; read-out: IC50 Escherichia coli. How it is done:
Activities of PDF enzyme for E. coli and S. aureus were determined using PDF/FDH coupled assay. In this coupled assay, the formate released by PDF from its substrate formyl-Methionine-Alanine-Serine (fMAS) is oxidized by coupling enzyme formate dehydrogenase (FDH), reducing one molecule of NAD^+ to NADH, which is measured absorption at 340 nm.

The subject of data set [2] is Streptococcus Pneumoniae Pen NS. Nature of the data set: MIC microdilution, S. Pneumoniae Pen NS. In kind it is cell-based. The note with it: read-out: MIC Streptococcus Pneumoniae Pen NS. On the procedure: (§1) Minimum inhibitory concentrations (MICs) were determined using the microdilution method in 96-well format plates. Each of the compounds of Examples was dissolved in dimethyl sulfoxide to a concentration of 2 mg/mL and stored at 4° C. until used. They were diluted in Mueller-Hinton Broth (MHB) and used for MIC determination. The range of concentrations tested was […] final concentration using a two-fold dilution system. Plates were incubated at 37° C. and MIC were recorded after 24 hours of incubation for bacteria.
(§2) Linezolid and vancomycin were used as standard antibiotics, respectively.
On the technique in general: Broth dilution looks for growth in wells or tubes with falling amounts of substance.

The target of data set [3] is PDF enzyme (Streptococcus pyogenes serotype M1, UniProt P68771). Put plainly: PDF/FDH coupled enzyme assay, Streptococcus pyogenes. In kind it is biochemical. Particulars: PDF/FDH coupled assay, substrate fMAS, absorption at 340 nm; read-out: IC50 Streptococcus pyogenes.
Chain of PDF enzyme (Streptococcus pyogenes serotype M1, UniProt P68771) (P68771 whole entry): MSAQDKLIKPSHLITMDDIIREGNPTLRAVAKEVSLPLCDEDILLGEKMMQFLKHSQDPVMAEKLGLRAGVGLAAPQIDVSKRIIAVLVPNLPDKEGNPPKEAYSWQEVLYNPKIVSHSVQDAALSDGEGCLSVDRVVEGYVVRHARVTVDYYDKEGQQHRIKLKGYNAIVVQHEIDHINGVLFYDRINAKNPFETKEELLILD
The test system of data set [4] is Vancomycin-resistant Enterococcus faecium. Put plainly: MIC microdilution, VR E. faecium. In kind it is cell-based. Particulars: read-out: MIC Vancomycin-resistant Enterococcus faecium. On the procedure: as §1, §2
In data set [5] the test system is Streptococcus Pneumoniae Pen S. Put plainly: MIC microdilution, S. Pneumoniae Pen S. Particulars: read-out: MIC Streptococcus Pneumoniae Pen S. In kind it is cell-based. On the procedure:
as §1, §2

The subject of data set [6] is Vancomycin-resistant Enterococcus faecalis. Put plainly: MIC microdilution, VR E. faecalis. In kind it is cell-based. Particulars: read-out: MIC Vancomycin-resistant Enterococcus faecalis. On the procedure: as §1, §2
The target in data set [7] is T1, PDF enzyme (Streptococcus pneumoniae serotype 4, UniProt Q9F2F0).
T1 sequence (Q9F2F0 1-203): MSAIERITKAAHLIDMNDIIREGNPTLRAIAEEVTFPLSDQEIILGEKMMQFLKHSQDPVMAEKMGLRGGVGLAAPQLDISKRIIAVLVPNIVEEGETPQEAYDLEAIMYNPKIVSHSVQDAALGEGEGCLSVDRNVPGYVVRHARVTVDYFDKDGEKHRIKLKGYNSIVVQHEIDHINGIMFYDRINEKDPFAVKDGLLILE
Nature of the data set: PDF/FDH coupled enzyme assay, Streptococcus Pneumoniae. In kind it is biochemical. Particulars: substrate fMAS, absorption at 340 nm.

Another data set has as its system Streptococcus pyogenes. Nature of the data set: MIC microdilution, S. pyogenes. In kind it is cell-based. Particulars: read-out: MIC Streptococcus pyogenes. On the procedure: as §1, §2
The nature of data set [8]: Acute toxicity study in mice. Particulars: mouse, in vivo, po, 4000 mg/kg; ICR mice, orally, observed for 14 days. On the procedure: The acute toxicity of the compounds of Example 5, 17 and 22 were tested using several groups of ICR mice each of 6 mice.
The mark [9] stands for this setting: microdilution, Mueller-Hinton Broth, 37° C., 24 hours.

Chain of PDF enzyme (Escherichia coli, UniProt P0A6K3) (P0A6K3 whole entry): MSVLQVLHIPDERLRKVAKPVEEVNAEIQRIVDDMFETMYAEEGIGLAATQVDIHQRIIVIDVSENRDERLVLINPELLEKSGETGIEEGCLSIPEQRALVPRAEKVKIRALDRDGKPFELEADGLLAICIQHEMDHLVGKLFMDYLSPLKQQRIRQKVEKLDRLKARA

A word on the IC50: it is the midpoint of a concentration-inhibition curve. For orientation: MIC means the smallest concentration in the dilution series that meets the test's criterion for growth inhibition. Take `Cc1ccc(CNC2CCN(C(=O)[C@@H](NC(=O)[C@H](CC3CCCC3)CN(O)C=O)C(C)(C)C)CC2)cc1` [Example 2, (R)-2-Cyclopentylmethyl-N-{(S)-2,2-dimethyl-1-[4-(4-methyl-benzylamino)-piperidine-1-carbonyl]-propyl}-3-(formyl-hydroxy-amino)-propionamide]: the IC50 on PDF enzyme [1] was 132 nM; at PDF enzyme [3], 86 nM; against PDF enzyme [7], 77 nM. Also, the MIC in data set [2] (setting [9]) was 0.4 µg/mL (≈ 0.777 µM); in data set [4] (setting [9]), 0.4 µg/mL (≈ 0.777 µM); in data set [5] (setting [9]) it was 0.1 µg/mL (≈ 0.194 µM); in data set [6] (setting [9]), 3.1 µg/mL (≈ 6.02 µM); with Streptococcus pyogenes (setting [9]), 0.2 µg/mL (≈ 0.389 µM).

The LD50 is the dose at which mortality reaches 50%. A high value points to lower toxicity. For `COc1ccc(CNC2CCN(C(=O)[C@@H](NC(=O)[C@H](CC3CCCC3)CN(O)C=O)C(C)(C)C)CC2)cc1` [Example 5, (R)-2-Cyclopentylmethyl-3-(formyl-hydroxy-amino)-N-{(S)-1-[4-(4-methoxy-benzylamino)-piperidine-1-carbonyl]-2,2-dimethyl-propyl}-propionamide], the MIC in data set [2] (setting [9]) came out at 0.8 µg/mL (≈ 1.51 µM); in data set [4] (setting [9]) it was 1.6 µg/mL (≈ 3.01 µM); in data set [5] (setting [9]), 0.2 µg/mL (≈ 0.377 µM); in [6] (setting [9]) it was 6.3 µg/mL (≈ 11.9 µM); with Streptococcus pyogenes (setting [9]), 0.4 µg/mL (≈ 0.754 µM). This compound displayed an LD50 at 14 days in data set [8] of over 2000 mg/kg.

`CC(C)(C)[C@H](NC(=O)[C@H](CC1CCCC1)CN(O)C=O)C(=O)N1CCC(NCc2ccc(O)cc2)CC1` [Example 6, (R)-2-Cyclopentylmethyl-3-(formyl-hydroxy-amino)-N-{(S)-1-[4-(4-hydroxy-benzylamino)-piperidine-1-carbonyl]-2,2-dimethyl-formyl}-propionamide]: the values for the IC50 on PDF enzyme [1], on PDF enzyme [3] and at PDF enzyme [7] were 102 nM, 84 nM and 42 nM, respectively. In addition, the MIC in data set [2] (setting [9]) was 3.1 µg/mL (≈ 6 µM); in [4] (setting [9]), 50 µg/mL (≈ 96.8 µM); in data set [5] (setting [9]) it was 0.8 µg/mL (≈ 1.55 µM); in data set [6] (setting [9]), over 50 µg/mL; in the data set with Streptococcus pyogenes (setting [9]), 0.8 µg/mL (≈ 1.55 µM).

In the case of `CC(C)(C)[C@H](NC(=O)[C@H](CC1CCCC1)CN(O)C=O)C(=O)N1CCC(Nc2ccc(F)cc2)CC1` [Example 17, (R)-2-Cyclopentylmethyl-N-{(S)-1-[4-(4-fluoro-phenylamino)-piperidine-1-carbonyl]-2,2-dimethyl-propyl}-3-(formyl-hydroxy-amino)-propionamide], the minimal inhibitory concentration (MIC) in data set [2] (24 h) was determined as 0.8 µg/mL (≈ 1.59 µM); in data set [4] (24 h) it was 0.4 µg/mL (≈ 0.793 µM); in [5] (24 h) it was 0.2 µg/mL (≈ 0.396 µM); in data set [6] (24 h) it was 3.1 µg/mL (≈ 6.14 µM); in the data set on Streptococcus pyogenes (24 h), 0.2 µg/mL (≈ 0.396 µM). Further, the LD50 at 14 days in data set [8] is over 2000 mg/kg.

Take `CC(C)(C)[C@H](NC(=O)[C@H](CC1CCCC1)CN(O)C=O)C(=O)N1CCC(Nc2ccc(O)cc2)CC1` [Example 20, (R)-2-Cyclopentylmethyl-3-(formyl-hydroxy-amino)-N-{(S)-1-[4-(4-hydroxy-phenylamino)-piperidine-1-carbonyl]-2,2-dimethyl-formyl}-propionamide]: the IC50 at PDF enzyme [1] came to 102 nM; at PDF enzyme [3], 61 nM; on PDF enzyme [7], 63 nM. The MIC in data set [2] (setting [9]) amounted to 3.1 µg/mL (≈ 6.17 µM); in data set [4] (setting [9]), 25 µg/mL (≈ 49.7 µM); in data set [5] (setting [9]) it was 0.8 µg/mL (≈ 1.59 µM); in [6] (setting [9]), 25 µg/mL (≈ 49.7 µM); with Streptococcus pyogenes (setting [9]) it was 1.6 µg/mL (≈ 3.18 µM).

On to `CN(c1ccccc1)C1CCN(C(=O)[C@@H](NC(=O)[C@H](CC2CCCC2)CN(O)C=O)C(C)(C)C)CC1` [Example 22, (R)-2-Cyclopentylmethyl-N-{(S)-2,2-dimethyl-1-[4-(methyl-phenyl-amino)-piperidine-1-carbonyl]-propyl}-3-(formyl-hydroxy-amino)-propionamide], for which the IC50 turned out to be 113 nM on PDF enzyme [1], 42 nM on PDF enzyme [3] and 25 nM at PDF enzyme [7]. Also, the MIC in data set [2] (setting [9]) was found to be 0.2 µg/mL (≈ 0.399 µM); in data set [4] (setting [9]) it was 0.2 µg/mL (≈ 0.399 µM); in [5] (setting [9]), 0.05 µg/mL (≈ 0.0999 µM); in data set [6] (setting [9]) it was 3.1 µg/mL (≈ 6.19 µM); with Streptococcus pyogenes (setting [9]), 0.05 µg/mL (≈ 0.0999 µM). In data set [8], the LD50 at 14 days was over 2000 mg/kg.
